According to patent US4087421A, “Substituted benzodiazepines and method of use” (American Cyanamid Company, priority 1977, dated 1978):
“And” between values parts separate entries of the source, which are not always exact repeats. Equal entries are not always repeated.

Key:
[1] = modified Randall and Selitto analgesic test, brewers yeast inflamed paw; format: in vivo, rats; conditions: 200 mg/Kg oral; two hours after yeast; active if T/C ≥ 1.37
Experimental: To determine analgesic activity, a modification of the method of Randall and Selitto [Arch. Int. […] This test measures the pain threshold of rats whose paws are made sensitive to pressure by the injection of 0.1 ml. of a 20% aqueous suspension of brewers yeast into the plantar surface of the left hind paw. Constantly increasing force (16 g/second) is applied to the swollen paw using an Analgesy Meter, Ugo Basile. The pressure is cut off at 250 g. of force when there is no response (sudden struggle or vocalization). […] Pressure-pain thresholds are always recorded two hours after administration of Brewers' yeast. Test compounds are administered at the same time as the yeast, at an oral dose of 200 mg/Kg. Ratios of treated (T)/control (C) reaction thresholds are calculated as estimates of analgesic efficacy (degree of analgesia obtainable).

[2] = reduction of spontaneous motor activity (Animax Activity Counter); format: in vivo; conditions: Rattus norvegicus, 5 min; oral, rats, 5 minute period; read-out: MDD50 (effective dose that causes a 50% reduction in motor activity)
Experimental: A useful test for anti-psychotic activity consists of measuring the reduction of spontaneous motor activity in animals.
Groups of 4 rats are treated orally with the test compound dissolved or suspended in starch vehicle at the maximum tolerated dose. At the estimated time of peak effect, the animals are placed singly into an Animax Activity Counter and the activity of each rat is recorded over a 5 minute period. The activity counts are compared to historical or parallel control values to determine significant increased or decreased locomotor activity.

[3] = "writhing syndrome" test for analgesic activity (phenyl p-quinone); format: in vivo, male Swiss albino mice; conditions: control approximately 30 per pair, active if 18 or less
Experimental: This method is based upon the reduction of the number of writhes following the intraperitoneal injection of one mg./kg. of body weight of phenyl p-quinone in male Swiss albino mice weighing 15-25 g. The syndrome is characterized by intermittent contractions of the abdomen, twisting and turning of the trunk, and extension of the hind legs beginning 3 to 5 minutes after injection of the phenyl p-quinone. The test compounds are administered orally at the indicated dose to groups of 2 mice each, 30 minutes before injection of the phenyl p-quinone.

[4] = reversible ptosis test; format: in vivo; conditions: oral, rats
Experimental: A useful test for anti-psychotic activity consists of measuring ptosis in animals.
Ptosis is defined as closure of the palpebral aperture (eyelid) greater than 70%. The compounds to be tested were administered orally to groups of 10 rats each. Periodically after treatment the rats were gently placed on the cage top and examined for 90 seconds for signs of ptosis. This manipulation eliminates spontaneous ptosis. The rats were then dropped from a height of about 18 inches (exteroceptive stimulation) onto the cage top to test for reversibility of ptosis. Reversible ptosis is defined as less than 70% closure of the palpebral aperture for longer than one minute after the exteroceptive stimulation and is indicative of neuroleptic activity of the drug administered.

[5] = Discrete Trial Conditioned Avoidance Test; format: in vivo, male Long-Evans rats; conditions: Rattus norvegicus, read-out: ED50 (reduces avoidance response by 50% as compared to controls)
Experimental: In this test the compounds are administered orally to male Long-Evans rats in a universal starch vehicle. The rats have been pre-conditioned to make a 70% avoidance response. The rats are placed in individual cages and a warning tone is sounded every 20 seconds. Each rat has the opportunity to press a bar which, if done within 5 seconds, prevents an electric shock through the grid floor of the cage and is termed an avoidance response. Each rat is given 50 trials and a score of avoidance responses is kept. The drug is administered at various dose levels. […]

[6] = Inhibition of tetrabenazine induced depression of exploratory behavior in mice; format: in vivo; conditions: for Number Responded/Number Treated: intraperitoneally or orally, 1 h before tetrabenazine 30 mg/kg
Experimental: Varying doses of the test compounds are administered intraperitoneally or orally to 5 mice one hour before the administration of tetrabenazine hexamate at an intraperitoneal dose of 30 mg/kg which is known to depress markedly the exploratory behavior of normal mice. Thirty minutes later the mice are tested for their exploratoy behavior. Individual mice are placed in the center of a horizontal disc. Inhibition of the depression induced by tetrabenazine is considered present if the mice perform one or more of the following actions within 10 seconds after being placed on the disc:
(1) Animals move to the edge of the disc and pear over the side.
(2) Animals move 180° in place.
(3) Animals display a head movement of 90° immediately followed by a head movement in the opposite direction of at least 45°.
Administration of the test compounds to additional groups of 5 mice is repeated, the numbers of individual animals showing an anti-depressant response (normal exploratory behavior) is recorded and the results are analyzed by the following scheme (statistically standardized; significant P = less than 0.05).
The results from several dose levels (acceptance in at least two sequential test procedures) are then used to establish the Range of Active Doses.

[7] = Enhancement of yohimbine lethality in mice; format: in vivo; conditions: yohimbine 34 mg/kg
Experimental: The test compounds were administered intraperitoneally, at various dose levels, to groups of 10 mice. One hour later all mice received yohimbine at a dose (34 mg/kg) estimated to have a lethal effect in 4% of the mice. Deaths were recorded 18 to 24 hours later.

[8] = Prevention of reserpine-induced hypothermia in rats; format: in vivo; conditions: for ED50: Rattus norvegicus, oral, dose column in mg/kg, read-out: ED50 (95% C.L.)
Experimental: Groups of 5 rats were treated orally with graded doses of the test compounds. One hour later the animals were treated with reserpine (solubilized in propylene glycol and citric acid) at a dose of 5 mg/kg intraperitoneally. Rectal temperatures were measured using a YSI Telethermometer. Temperatures were recorded just prior to treatment, one hour later just prior to reserpine administration and at hourly intervals following reserpine administration for 5 hours. […]

## CN1CCN(C2=Nc3cc(Cl)ccc3N(C)c3cscc32)CC1.[O-][Cl+3]([O-])([O-])O.[O-][Cl+3]([O-])([O-])O [7-Chloro-4-methyl-10-(4-methyl-1-piperazinyl)-4H-thieno[3,4-b][1,5]benzodiazepine diperchlorate]
[1]
  Ratio T/C (treated/control reaction thresholds): 1.55
[2]
  ED50: 25 mg/kg

## CN1CCN(C2=Nc3ccccc3Nc3cscc32)CC1 [10-(4-Methyl-1-piperazinyl)-4H-thieno[3,4-b][1,5]benzodiazepine]
[3]; 6.25 mg/kg oral
  No. of Writhes Per Pair: 4 and 2
[1]
  Ratio T/C (treated/control reaction thresholds): 1.57
[2]
  ED50: 6.1 mg/kg
[4]
  ED50 (dose estimated to create reversible ptosis in 50% of the animals): 13 mg/kg
[5]; oral, male Long-Evans rats
  ED50: 7 mg/kg

## CN(C)CCCN1c2ccccc2Sc2ccc(Cl)cc21 [Chlorpromazine, reference compound]
[5]; po
  ED50: 9 mg/kg

## CN1CCN(C2=Nc3ccc(Cl)cc3Nc3cscc32)CC1 [6-Chloro-10-(4-methyl-1-piperazinyl)-4H-thieno[3,4-b][1,5]benzodiazepine]
[3]; 6.25 mg/kg oral
  No. of Writhes Per Pair: 7 and 6
[2]
  ED50: 7.7 mg/kg
[4]
  ED50 (dose estimated to create reversible ptosis in 50% of the animals): 17 mg/kg

## CN1CCN(C2=Nc3ccccc3N(C)c3cscc32)CC1 [4-Methyl-10-(4-methyl-1-piperazinyl)-4H-thieno[3,4-b][1,5]benzodiazepine]
[3]; 50 mg/kg oral
  No. of Writhes Per Pair: 0
[6]; 0.78 mg/kg
  Number Responded/Number Treated: 1/10
[6]; 1.56 mg/kg
  Number Responded/Number Treated: 3/10
[6]; 3.13 mg/kg
  Number Responded/Number Treated: 6/10
[6]; 6.25 mg/kg
  Number Responded/Number Treated: 6/10
[6]; 12.5 mg/kg
  Number Responded/Number Treated: 7/10
[6]; 25.0 mg/kg
  Number Responded/Number Treated: 8/10
[6]; Mus musculus, calculated by method of Finney, dose column in mg/kg, read-out: ED50 (95% C.L.)
  ED50: 4.2 mg/kg
[2]
  ED50: 12 mg/kg
[7]; 10 mg/kg intraperitoneal, 18 hours
  Number Dead/Number Treated: 3/10
[7]; 10 mg/kg intraperitoneal, 24 hours
  Number Dead/Number Treated: 8.10
[7]; 20 mg/kg intraperitoneal, 18 hours
  Number Dead/Number Treated: 6/10
[7]; 20 mg/kg intraperitoneal, 24 hours
  Number Dead/Number Treated: 8/10
[7]; 40 mg/kg intraperitoneal, 18 hours
  Number Dead/Number Treated: 4/10
[7]; 40 mg/kg intraperitoneal, 24 hours
  Number Dead/Number Treated: 8/10
[5]; oral, male Long-Evans rats
  ED50: 17 mg/kg
[8]; 0.20 mg/kg oral, 2 hours after reserpine
  Percent of Animals Showing > Two Standard Deviations in Rectal Temperature Over Control Means: 0%
[8]; 0.20 mg/kg oral, 3 hours after reserpine
  Percent of Animals Showing > Two Standard Deviations in Rectal Temperature Over Control Means: 0%
[8]; 0.20 mg/kg oral, 4 hours after reserpine
  Percent of Animals Showing > Two Standard Deviations in Rectal Temperature Over Control Means: 0%
[8]; 0.20 mg/kg oral, 5 hours after reserpine
  Percent of Animals Showing > Two Standard Deviations in Rectal Temperature Over Control Means: 0%
[8]; 0.39 mg/kg oral, 2 hours after reserpine
  Percent of Animals Showing > Two Standard Deviations in Rectal Temperature Over Control Means: 0%
[8]; 0.39 mg/kg oral, 3 hours after reserpine
  Percent of Animals Showing > Two Standard Deviations in Rectal Temperature Over Control Means: 0%
[8]; 0.39 mg/kg oral, 4 hours after reserpine
  Percent of Animals Showing > Two Standard Deviations in Rectal Temperature Over Control Means: 0%
[8]; 0.39 mg/kg oral, 5 hours after reserpine
  Percent of Animals Showing > Two Standard Deviations in Rectal Temperature Over Control Means: 0%
[8]; 0.78 mg/kg oral, 2 hours after reserpine
  Percent of Animals Showing > Two Standard Deviations in Rectal Temperature Over Control Means: 33%
[8]; 0.78 mg/kg oral, 3 hours after reserpine
  Percent of Animals Showing > Two Standard Deviations in Rectal Temperature Over Control Means: 7%
[8]; 0.78 mg/kg oral, 4 hours after reserpine
  Percent of Animals Showing > Two Standard Deviations in Rectal Temperature Over Control Means: 7%
[8]; 0.78 mg/kg oral, 5 hours after reserpine
  Percent of Animals Showing > Two Standard Deviations in Rectal Temperature Over Control Means: 27%
[8]; 1.56 mg/kg oral, 2 hours after reserpine
  Percent of Animals Showing > Two Standard Deviations in Rectal Temperature Over Control Means: 100%
[8]; 1.56 mg/kg oral, 3 hours after reserpine
  Percent of Animals Showing > Two Standard Deviations in Rectal Temperature Over Control Means: 40%
[8]; 1.56 mg/kg oral, 4 hours after reserpine
  Percent of Animals Showing > Two Standard Deviations in Rectal Temperature Over Control Means: 0%
[8]; 1.56 mg/kg oral, 5 hours after reserpine
  Percent of Animals Showing > Two Standard Deviations in Rectal Temperature Over Control Means: 60%
[8]; 3.13 mg/kg oral, 2 hours after reserpine
  Percent of Animals Showing > Two Standard Deviations in Rectal Temperature Over Control Means: 50%
[8]; 3.13 mg/kg oral, 3 hours after reserpine
  Percent of Animals Showing > Two Standard Deviations in Rectal Temperature Over Control Means: 30%
[8]; 3.13 mg/kg oral, 4 hours after reserpine
  Percent of Animals Showing > Two Standard Deviations in Rectal Temperature Over Control Means: 30%
[8]; 3.13 mg/kg oral, 5 hours after reserpine
  Percent of Animals Showing > Two Standard Deviations in Rectal Temperature Over Control Means: 20%
[8]; 6.25 mg/kg oral, 2 hours after reserpine
  Percent of Animals Showing > Two Standard Deviations in Rectal Temperature Over Control Means: 80%
[8]; 6.25 mg/kg oral, 3 hours after reserpine
  Percent of Animals Showing > Two Standard Deviations in Rectal Temperature Over Control Means: 80%
[8]; 6.25 mg/kg oral, 4 hours after reserpine
  Percent of Animals Showing > Two Standard Deviations in Rectal Temperature Over Control Means: 80%
[8]; 6.25 mg/kg oral, 5 hours after reserpine
  Percent of Animals Showing > Two Standard Deviations in Rectal Temperature Over Control Means: 0%
[8]; 12.5 mg/kg oral, 2 hours after reserpine
  Percent of Animals Showing > Two Standard Deviations in Rectal Temperature Over Control Means: 100%
[8]; 12.5 mg/kg oral, 3 hours after reserpine
  Percent of Animals Showing > Two Standard Deviations in Rectal Temperature Over Control Means: 100%
[8]; 12.5 mg/kg oral, 4 hours after reserpine
  Percent of Animals Showing > Two Standard Deviations in Rectal Temperature Over Control Means: 100%
[8]; 12.5 mg/kg oral, 5 hours after reserpine
  Percent of Animals Showing > Two Standard Deviations in Rectal Temperature Over Control Means: 20%
[8]; 2 hours after reserpine
  ED50: 1.6 mg/kg
[8]; 3 hours after reserpine
  ED50: 2.9 mg/kg
[8]; 4 hours after reserpine
  ED50: 3.5 mg/kg
